{"source": "patent US6638938B1", "about": "“Method for preventing tissue injury from hypoxia” (Cell Therapeutics, Inc., priority 1993, dated 2003)", "key": {"[1]": {"tested_on": "lungs of mice subjected to hemorrhage and resuscitation", "experiment": "lung histology in murine hemorrhage and resuscitation model", "assay_type": "in vivo, Balb/C mice", "method": "This example illustrates a study of Lisofylline in a murine hemorrhage and resuscitation model. Male Balb/C mice, 8-12 weeks of age, were obtained from Harlan-Sprague Dawley (Indianapolis, Ind.). The animals were kept on a 12 hour light/dark cycle with free access to food and water. With this model, 30% of the calculated blood volume (approximately 0.55 ml for a 20 gram mouse) was withdrawn from a methoxyflurane anesthetized mouse by cardiac puncture over a 60-second period. The blood was collected into a heparinized syringe (5 units heparin), kept at 37° C. for one hour, then reinfused into the mouse through a retroorbital plexus injection. Using this method, one is able to resuscitate all hemorrhaged mice without complication. The total period of methoxyflurane anesthesia is less than 2 minutes in all cases. The mortality rate with this hemorrhage protocol is approximately 12%, with all deaths occurring over the 24 hours post hemorrhage, and most deaths occurring within the one hour post hemorrhage.\nMice were treated with 100 mg/kg Lisofylline in 0.2 ml PBS and given initially i.v., by retroorbital injection, then i.p. every 8 hours for a total of 9 doses. In hemorrhaged mice, the Lisofylline in PBS was added to the shed blood, and then given retroorbitally with the blood during the resuscitation phase. In hemorrhaged Balb/C mice (n=3), sacrificed by exsanguination 5 minutes after receiving Lisofylline with the blood used for resuscitation, serum levels of Lisofylline were 44±6 μg/ml.\nAt 3 days following hemorrhage and resuscitation or the initiation of Lisofylline treatment, mice were sacrificed and the pulmonary circulation flushed with chilled PBS injected into the right ventricle, as described above. The left lower lobe of the lungs was placed into formalin. Hematoxylin and eosin sections of the lungs were prepared, and examined in a blinded fashion by a pulmonary pathologist who was unaware of the group to which the individual animal belonged. Lungs from normal, unmanipulated Balb/C mice also were included as additional controls. The histopathologic findings were scored on a 0 to 3 scale (with 0 being normal and 3 being the most severe change) for the following variables: a) neutrophil infiltration into the pulmonary interstitium; b) intraaveolar hemorrhage; and c) interstitial edema.\nGroups of 6 to 8 mice were used for each condition. For each experimental condition, the whole group of animals was prepared and then studied at the same time. Cells, mRNA, BAL supernatants, and plasma were obtained individually from eachanimal, and then were analyzed individually before calculating group data. Data are presented as mean±standard error of the mean (SEM) for each experimental group. One-way analysis of variance and the Student Newman Keuls test were used for comparisons between normal, nominal treated, hemorrhage/treated and hemorrhage data groups. A P value of less than 0.05 was considered significant."}, "TNFα": {"tested_on": "TNFα", "experiment": "immunohistochemical staining of lung samples for TNFα", "assay_type": "in vivo", "settings": "hemorrhaged/resuscitated mice or normal mice treated", "from_the_text": "In sections from mice subjected to hemorrhage and resuscitation 3 days previously, staining for TNFα was present, particularly in the perivascular areas."}, "human neutrophils": {"tested_on": "human neutrophils", "experiment": "neutrophil adherence to nylon fiber", "assay_type": "cell-based", "from_the_text": "Human recombinant interleukin-1α (IL-1) was obtained from Hoffmann-LaRoche, Inc. (Nutley, N.J.), frozen inaliquots and thawed daily for use. Ketamine hydrochloride was obtained from Parke-Davis (Morris Plains, N.J.), xylazine from Haver (New York, N.J.), ^125I labeled bovine serum albumin (BSA) from ICN Radiochemicals (Irvine, Calif.), and heparin sodium from Elkins-Sinn, Inc. (Cherry Hill, N.J.). All other reagents were purchased from Sigma Chemical Co. (St. Louis, Mo.). Neutrophils were purified from human blood by well described methods. Venous blood was anticoagulated with heparin and the cellular elements were separated from platelet-rich plasma by centrifugation. Cell pellets were resuspended in platelet-poor plasma and diluted 1:4 with 6% dextran (Pharmacia Fine Chemicals, Piscataway, N.J.) in saline. Red cells were separated from leukocytes by sedimentation. Leukocyte-rich supernatants were then aspirated, underlain with Ficoll-Hypaque (Pharmacia Fine Chemicals), and centrifuged at 275×g to separate neutrophils and monocytes. Sedimented neutrophils were resuspended in Hank's balanced salt solution (HBSS). These preparations contained 94 to 96% neutrophils and 4 to 6% monocytes. All values were compared by analysis of variance and corrected by post hoc Student t tests for differences between groups. A p value of <0.05 was considered significant.\nNeutrophil adherence was measured using the nylon fiber technique. Briefly, 50 mg of scrubbed nylon fiber (3-XXX), 3.81 cm type 200 (Travenol Laboratories, Deerfield, Ill.), was packed into the distal 10 mm of the barrels of tuberculin syringes. Ficoll-Hypaque-purified human neutrophils (1×10^7 cells) in plasma (total volume, 0.25 ml) with and without Lisofylline were then placed in the top of the nylon fiber column which was maintained at 37° C. After 90 sec, the plunger was inserted and the samples were eluted. Eluted neutrophils were counted by hemocytometer, and percentages of neutrophils adhering to the nylon fiber were calculated by the following formula: [formula]\nNeutrophil chemotactic activity was determined by Boyden chamber assay and quantitated as the number of migrating PMN/5HPF using zymosan-activated serum (ZAS) as the chemoattractant (Repine et al., J. Reticuloendo. Soc. 24:217, 1978). Neutrophil adherence was assessed by quantitating the percentage of neutrophils adhering to nylon fibers following addition of phorbol myristate acetate (PMA 10-^6M, Sigma) (Rasp et al., J. Reticuloendo. Soc. 25:101, 1979). Neutrophil superoxide production was determined by quantitating superoxide dismutase inhibitable reduction of cytochrome c in response to PMA (10^−6 M) (Berger et al., J. Infectious Dis. 149:413, 1984)."}, "isolated rat kidneys": {"tested_on": "isolated rat kidneys", "experiment": "ischemic isolated rat kidney reperfused with human neutrophils", "settings": "Ischemia + neutrophils + Lisofylline", "from_the_text": "This example illustrates an in vivo kidney model of hypoxic tissue injury using Lisofylline. Isolated rat kidneys were rendered ischemic and reperfused with human neutrophils (prepared as in example 4 above) according to the procedure in Linas et al;, Am. J. Physiol. 24:728-735, 1988. Lisofylline decreased injury in this ischemic isolated rat kidney model according to the data presented in Table 8 below wherein GFR refers to glomerular filtration rate and TNa refers to tubular sodium reabsorption."}, "[2]": {"settings": "hemorrhaged/resuscitated mice, 100 mg/kg every 8 hours, 9 doses, 3 days, not significantly different from normal"}}}
{"compound": "C[C@@H](O)CCCCn1c(=O)c2c(ncn2C)n(C)c1=O", "note": "[Lisofylline, 1-R-(5-hydroxyhexyl)-3,7-dimethylxanthine]", "values": [{"measurement": "number of neutrophils in the pulmonary interstitium", "setting": "[1]; hemorrhaged mice treated, versus hemorrhaged/resuscitated untreated, 3 days", "result": "significantly decreased"}, {"measurement": "degree of interstitial edema", "setting": "[1]; [2]", "result": "minimal"}, {"measurement": "degree of intraaveolar hemorrhage", "setting": "[1]; [2]", "result": "minimal"}, {"measurement": "number of neutrophils in the lungs", "setting": "[1]; normal mice treated, versus normal untreated", "result": "significantly increased"}, {"measurement": "lung injury", "setting": "[1]; rodent model of hemorrhage and reperfusion", "result": "completely prevented"}, {"measurement": "immunohistochemical staining of lung for TNFα", "setting": "TNFα", "result": "no signal"}, {"measurement": "Neutrophil Adherence", "setting": "human neutrophils; Neutrophils + PMA + Lisofylline 0.7 μM", "result": "35.8 ± 4.52 (4)δ %"}, {"measurement": "Neutrophil Adherence", "setting": "human neutrophils; Neutrophils + PMA + Lisofylline 7 μM", "result": "38.8 ± 1.38 (4)δ %"}, {"measurement": "Neutrophil Adherence", "setting": "human neutrophils; Neutrophils + PMA + Lisofylline 70 μM", "result": "25.6 ± 2.78 (5)δ %"}, {"measurement": "Neutrophil Adherence", "setting": "human neutrophils; Neutrophils + PMA + Lisofylline 700 μM", "result": "26.6 ± 6.03 (5)δ %"}, {"measurement": "stimulated human neutrophil adherence", "setting": "human neutrophils; PMA 10^-6 M, in vitro", "result": "reduced"}, {"measurement": "TNa (tubular sodium reabsorption)", "setting": "isolated rat kidneys; control 90%, ischemia + neutrophils 40%", "result": "78% (n = 6)"}, {"measurement": "GFR (glomerular filtration rate)", "setting": "isolated rat kidneys; control 250, ischemia + neutrophils 113", "result": "202 (n = 6)"}]}
